Publication PMC10733463, “Berberine-microbiota interplay: orchestrating gut health through modulation of the gut microbiota and metabolic transformation into bioactive metabolites” (Frontiers in Pharmacology, 2023)

What was measured:
[1] = Dihydroberberine stability in solution over 24 hours; format: physicochemical; conditions: within 24 h; 10 ng/mL in Milli-Q water, 10°C, without vitamin C
Procedure: A working solution of dihydroberberine at 10 ng/mL was prepared in Milli-Q water and supplemented or not with 17 mg/mL L-ascorbic acid (vitamin C) solution and injected during 24 hours of storage time in the autosampler at 10°C.

[2] = UPLC-MS/MS quantification of berberine and metabolites in plasma; format: in vivo, Ross 308 broiler chickens; conditions: chickens fed 0.1, 0.5 or 1 g berberine/kg feed for 21 days; LOQ 0.1 ng/mL
From the text: (§1) The study was undertaken following the guidelines of the ethics committee of the Faculty of Veterinary Medicine and Bioscience Engineering, Ghent University, in accordance with the EU Directive 2010/63/EU. One-day-old Ross 308 male broilers were obtained from a local hatchery and housed in pens on wood shavings. They were allotted into 4 groups, with three replicate pens per group each housing 8 chickens. The animals were not vaccinated. Water and commercial starter feed (day 1–12, FARM 1 Mash, Country’s Best, Versele Laga, Deinze, Belgium) or grower (day 13–21, FARM 2 mash, Country’s Best, Versele Laga, Deinze, Belgium) were provided ad libitum. The control group received the standard non-supplemented diets, whereas the chickens in other groups were fed the same feed supplemented with 0.1, 0.5 or 1 g berberine/kg feed throughout the whole trial period. At day 21, 4 birds per pen were weighted then euthanized by sodium pentobarbital injection for sampling. Individual jejunal, ileal, caecal and colonic contents were stored at −20°C for microbiota composition analysis (16S rRNA gene sequencing). Additionally, ileal and caecal content samples were collected and stored at −20°C for berberine and berberine-derived metabolite quantification. Duodenal tissue samples were collected and fixed in 4% phosphate buffered formaldehyde for histological analysis. Blood samples were collected in heparin tubes and centrifuged at 524 g for 10 min to recover the plasma fraction, which was further mixed with 17 mg/mL L-ascorbic acid for dihydroberberine stabilization, and stored at −20°C for berberine and berberine-derived metabolite quantification.
(§2) The column temperature was maintained at 25°C. The autosampler temperature was set at 10°C.
A 137.5 µL plasma sample containing 17 mg/mL L-ascorbic acid was used for sample extraction. The ascorbic acid solution was added to prevent oxidation of dihydroberberine to berberine during sample storage ([Feng et al., 2015]). The plasma sample was transferred to an OstroTM 96 well-plate (25 mg) (Waters). Subsequently, 50 µL Milli-Q water and 25 µL of an internal standard solution containing 100 ng/mL of both berberine-d6 and tetrahydropalmatine were added. A 640 µL volume of 1% (v/v) formic acid solution in acetonitrile (1/3 ratio) was added, followed by gentle mixing. Vacuum was applied on the Ostro™ plate for 5 min and the eluate was collected in a 2 mL square 96-well collector plate. The sample was transferred in a glass tube and evaporated at 40°C under a gentle stream of nitrogen in a Pierce (Rockford, United States) Reacti-Therm III™ Heating Module and Reacti-Vap™ III Module. The dried sample extract was reconstituted in 500 µL Milli-Q water, followed by injection of a 5 µL sample aliquot onto the UPLC-MS/MS apparatus. Quantification was based on the ratio of the analyte peak area compared to the peak area of the internal standard berberine-d6.
Calibration standards and quality control samples were prepared as follows: 137.5 µL of blank plasma stabilized with 17 mg/mL L-ascorbic acid were supplemented with 25 µL mixed working solutions of berberine and metabolites (except dihydroberberine) at different levels, 25 µL of dihydroberberine working solution, stabilized with 17 mg/mL L-ascorbic acid, at different levels and 25 µL of an internal standard solution containing 100 ng/mL of both berberine-d6 and tetrahydropalmatine. The calibration curve was in the 0.1–100 ng/mL range, including 0.1, 0.5, 1, 2.5, 5, 10, 25, […], 50 and 100 ng/mL levels.
The UPLC-MS/MS analysis method for the quantification of berberine and berberine-derived metabolites both in plasma and ileal/caecal intestinal content was validated to the guidelines of the European Medicines Agency, i.e., of the Committee for Veterinary Medicinal Products (EMEA/CVMP/VICH/463202/2009) and of the Committee for Medicinal Products for Human Use (EMEA/CHMP/EWP/192217/20), and in accordance with the EU Directive 2002/657/EC. […]

[3] = UPLC-MS/MS quantification of berberine and metabolites in ileal and caecal content; format: in vivo, Ross 308 broiler chickens; conditions: 21 days
From the text: as §1, §2
250 mg of ileal or caecal content was weighed in a 15 mL polypropylene centrifuge tube and 250 µL of ascorbic acid 170 mg/mL solution was added for stabilization of dihydroberberine, followed by brief vortexing. Subsequently, 25 µL of an internal standard solution containing 250 μg/mL of berberine-d6 and 2.5 μg/mL tetrahydropalmatine were added, followed by brief vortexing. A 2.5 mL volume of extraction solvent was then added, consisting of a 1% (v/v) formic acid solution in methanol. The sample was put on a rotary shaker set at 80 rpm for 20 min, followed by centrifugation (3,720 g, 10 min, 4°C). The supernatant was then diluted, by a factor 5 for measurement of low abundance components, and by a factor 2,000 for measurement of high abundance components. The 1/5 diluted sample extract was prepared directly in an autosampler vial as follows: 200 µL sample extract were mixed with 100 µL ascorbic acid 170 mg/mL solution and 700 µL Milli-Q water. For the 1/2,000 diluted sample extract, an intermediate 1/100 sample dilution was prepared by combining 500 µL sample extract and 49.5 mL of Milli-Q water. 50 μL was then transferred in an autosampler vial followed by the addition of 950 µL of Milli-Q water. For both dilutions, a 5 µL sample aliquot was injected onto the UPLC-MS/MS apparatus. Quantification was based on the ratio of the analyte peak area compared to the peak area of the internal standard tetrahydropalmatine for 1/5 diluted sample extracts, and on the ratio of the analyte peak area compared to the peak area of the internal standard berberine-d6 for 1/2,000 diluted sample extracts.
Calibration standards and quality control samples were prepared as follows: 250 mg of blank ileal or caecal content were supplemented with 250 µL of ascorbic acid 170 mg/mL solution, 25 µL mixed solution of berberine and metabolites (with the exception of dihydroberberine) at different levels, 25 µL of dihydroberberine solution, stabilized with 17 mg/mL ascorbic acid, at different levels and 25 µL of an internal standard solution containing 0.625 μg/mL of berberine-d6 and 2.5 μg/mL tetrahydropalmatine. The calibration curve was in the 62.5–5,000 ng/g range, and included 62.5, 125, 250, 500, 1,000, 2,500, and 5,000 ng/g levels. […]

Caco-2 cells = assay: Berberine metabolism in intestinal cell cultures, Caco-2; format: in vitro ADME, human
Procedure: (§3) Caco-2 and T84 cells were seeded at 2 × 10^5 cells/well in 96-well plates and cultivated for 24 h in their respective medium, as described before. Cells were treated with 200 µL of 0.1 μg/mL berberine in antibiotic-free medium and incubated for 48 h. Berberine medium only was incubated in the same conditions as the cells and used as control for metabolite baseline levels. 100 μL of cell cultures or control medium were collected and centrifuged at 13,000 g for 10 min 80 μL of the supernatant was mixed with 20 µL 170 mg/mL L-ascorbic acid solution in water for dihydroberberine stabilization and stored at −20°C until metabolite analysis. All experiments were performed in triplicate at 37°C, 5% CO2. Metabolite production was expressed as a log2 fold change, calculated as the log2 of the ratio of the metabolite response at t = 48 h in the cell cultures over the metabolite response at t = 48 h in the control medium.
as §2

T84 cells = assay: Berberine metabolism in intestinal cell cultures, T84; format: in vitro ADME, human
Procedure: as §3, §2

Structure (SMILES)	Oxidation of dihydroberberine back to berberine [1]	Detection in plasma [2]	Ratio caecum / ileum (concentration) ([3]; 0.1 g berberine/kg feed)	Ratio caecum / ileum (concentration) ([3]; 0.5 g berberine/kg feed)	Ratio caecum / ileum (concentration) ([3]; 1 g berberine/kg feed)	Detection in cell culture (Caco-2 cells; Caco-2, 0.1 μg/mL berberine, 48 h)	Detection in cell culture (T84 cells; T84, 0.1 μg/mL berberine, 48 h)	Log2(fold change) of metabolite response, cell culture over berberine control medium at 48 h (Caco-2 cells; human, Caco-2, 48 h, 0.1 µg/mL)	Log2(fold change) of metabolite response, cell culture over berberine control medium at 48 h (T84 cells; human, 0.1 µg/mL)
COc1ccc2c(c1OC)CN1CCc3cc4c(cc3C1=C2)OCO4 [Dihydroberberine, dihydroberberine]	up to 66%	effectively detected	0.75	0.27	0.44				
COc1ccc2cc3n(c(=O)c2c1OC)CCc1cc2c(cc1-3)OCO2 [Oxyberberine, oxyberberine]		not detected	1.94	1.48	0.95	not detected	not detected		
COc1cc2c(cc1OC)-c1cc3ccc(OC)c(OC)c3c[n+]1CC2 [Palmatine, palmatine chloride]								-0.18	-0.72
